One test deals with siRNA-Top1 CL187 cells. The test can be described thus: Cell viability of Top1-silenced cells. It is filed as cell-based, Human. Here is the method: PTE or RE were dissolved in DMSO and diluted with culture medium to 1–100 μM. The final concentration of DMSO was less than 0.1%, and 0.1% DMSO as negative control. […] Exponentially growing cells were seeded in 96-well plates (5 × 10^3 cells/well) for 12 h. Various drugs were added separately and incubated for 24, 48, and 72 h. Cell viability was determined by CCK-8 (Beyotime Biotechnology, Shanghai, China) assay.

For another test, the target named is T1, Top1 (Homo sapiens, UniProt P11387).
T1 construct: purchased TopoGEN, Buena Vista, CO, USA
T1 sequence (P11387 1-765): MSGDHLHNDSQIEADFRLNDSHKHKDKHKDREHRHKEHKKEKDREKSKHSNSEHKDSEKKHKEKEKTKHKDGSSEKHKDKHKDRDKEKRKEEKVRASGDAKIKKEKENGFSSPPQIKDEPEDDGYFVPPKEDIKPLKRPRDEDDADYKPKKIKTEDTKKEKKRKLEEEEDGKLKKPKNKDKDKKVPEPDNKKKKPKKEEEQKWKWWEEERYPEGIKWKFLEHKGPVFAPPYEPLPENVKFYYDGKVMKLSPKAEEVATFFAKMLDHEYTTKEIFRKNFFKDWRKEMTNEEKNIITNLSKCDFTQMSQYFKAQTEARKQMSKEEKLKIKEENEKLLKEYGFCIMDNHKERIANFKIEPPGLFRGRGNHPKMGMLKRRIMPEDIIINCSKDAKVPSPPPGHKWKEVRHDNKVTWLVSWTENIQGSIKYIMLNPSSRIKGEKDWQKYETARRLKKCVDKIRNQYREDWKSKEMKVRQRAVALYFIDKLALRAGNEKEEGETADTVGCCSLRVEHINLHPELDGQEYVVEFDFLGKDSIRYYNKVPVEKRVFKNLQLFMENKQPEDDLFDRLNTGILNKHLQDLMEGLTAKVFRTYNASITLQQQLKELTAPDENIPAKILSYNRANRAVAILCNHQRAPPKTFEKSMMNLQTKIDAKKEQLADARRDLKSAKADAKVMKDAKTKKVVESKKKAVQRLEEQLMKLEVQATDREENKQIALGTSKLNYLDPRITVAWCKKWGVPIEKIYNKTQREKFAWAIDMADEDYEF
The test can be described thus: Direct Top1 enzyme activity (DNA relaxation) assay. Conditions: gel electrophoresis. It counts as biochemical. Here is the method:
Different concentrations of the drug solution were prepared. The solvent was used as negative control group, and CPT (50 μM) was used as the positive control group. Each sample included 2 units of Top1 (TopoGEN, Buena Vista, CO, USA) and 250 ng super helical DNA (pHOT-1, TopoGEN, Buena Vista, CO, USA). The samples were incubated for 30 min at 37 °C, and then the reaction was stopped with SDS. After digestion with proteinase K (50 μg/mL, 60 min at 37 °C), samples were separated through electrophoresis (1% agarose gel). The electrophoresis was conducted at 180 V constant pressure for 20 min. The gel was immersed in the dye without EB for 30 min, and the images were collected by gel imaging system (Tanon-1600B, Shanghai, China).

A further test deals with Top1 and Tdp1. The test can be described thus: Top1 and Tdp1 in xenograft tumor tissues (WB, qPCR). It is filed as in vivo, BABLc/nude mice. The note with it: subcutaneous CL187 xenograft. Here is the method:
The 20 mg of the tumor was added into 1 mL RIPA lysis, and homogenized for 3 times under low temperature condition, and centrifuged at 12,000 rpm for 10 min. Subsequently, the supernatant was collected, and the contents of Top1 and Tdp1 were determined by WB as described in Section 2.4.4. The 20 mg of tumor was added into 1 mL Trizol, and homogenized for 3 times. The expression levels of Top1 and Tdp1 were analyzed using the method described in Section 2.4.5.
(In qPCR the cycle at which signal appears reflects the starting amount.)

Another test deals with Tdp1. The test can be described thus: Western blot of Tdp1 protein in cells. It counts as cell-based, Human. The note with it: 6 h. Here is the method: CL187 cells were treated with RE or PTE for 6 or 12 h, collected, and placed into lysis buffer (KeyGEN BioTECH, Nanjing, China). The total protein content in the cell lysates was measured using a BCA kit. Equivalent amount of total protein (30 μg) was loaded onto 10% SDS-PAGE gel. Electrophoresis was performed at 80 V for 25 min. After the sample went through concentrated gel, the voltage was adjusted to 120 V. Electrophoresis was stopped when the bromophenol blue band approached the bottom of the gel. After being transferred to PVDF membranes, the samples were incubated separately with 3 types of primary antibodies Top1, Tdp1, and P53 rabbit mAb (CST, Boston, MA, USA), followed by the incubation with secondary antibody goat anti-rabbit IgG (HRP)-conjugated (1:3000). ECL kit (New Cell and Molecular Biotech, Suzhou, China) was used for color development, and the images were collected by the gel imaging system (Tanon-5200, Shanghai, China).
(Immunoblotting shows a protein as a band on a membrane.)

Usually IC50 stands for the midpoint of a concentration-inhibition curve. Read a low IC50 as inhibition by little substance.

Take `COc1cc(/C=C/c2ccc(O)cc2)cc(OC)c1` [PTE, 3,5-dimethoxy-4′-hydroxy-trans-stilbene]: the IC50 was 70 ± 16.2 µM in the test with siRNA-Top1 CL187 cells (Homo sapiens, 24 h, siRNA-Top1 CL187, 24 h); 31.9 ± 8.11 µM with siRNA-Top1 CL187 cells (Homo sapiens, 48 h, siRNA-Top1 CL187, 48 h); 20.2 ± 4.1 µM in the test on siRNA-Top1 CL187 cells (Homo sapiens, 72 h, siRNA-Top1 CL187, 72 h); around 20 µM in the test with siRNA-Top1 CL187 cells (siRNA-Top1 CL187, 72 h). Further, the “inhibition of Top1 enzyme activity (SC DNA relaxation)” value at Top1 (30 min incubation, CPT at 50 uM) is on record as “had the ability to inhibit Top1 enzyme activity in a dose-dependent manner”. On Top1 (relaxation of supercoiled pHOT-1 DNA, 30 min), the “concentration exhibiting the same inhibitory effect on Top1 enzyme activity” value amounted to 20 µM. Further, in the test on Top1 and Tdp1, the “mRNA expression of Top1 and Tdp1 in tumor tissues” value was “inhibited”. The “protein contents of Top1 and Tdp1 in tumor tissues (WB)” value in the test with Top1 and Tdp1 (especially high-concentration group) was “decreased significantly”. In addition, the Tdp1 protein content result was “reduced in dese-dependent manner” with Tdp1 (Tdp1-over CL187 cells); “reduced in a dose-dependent manner” in the test with Tdp1 (siRNA-Top1 CL187 cells); “decreased in PTE treatment group, but neither in dese-dependent and significant manner” in the test with Tdp1 (wild-type CL187 cells).

For the origin of these results see article PMC8391236, “Effect of Pterostilbene, a Natural Derivative of Resveratrol, in the Treatment of Colorectal Cancer through Top1/Tdp1-Mediated DNA Repair Pathway” (Cancers, 2021).
